# Source: ChEMBL document CHEMBL5465560, “Selectivity Literature for EUbOPEN Chemogenomic Library” (2024)
# Key:
# [1] = target: Calcium/calmodulin-dependent protein kinase type II subunit alpha (Homo sapiens, UniProt Q9UQM7); assay: Selectivity interaction (Kinase panel (radiometric inhibition assay)) EUB0000651a CAMK2A
# [2] = target: Leukocyte tyrosine kinase receptor (Homo sapiens, UniProt P29376); assay: Selectivity interaction (Kinase panel (radiometric inhibition assay)) EUB0000651a LTK
# [3] = target: T1, cAMP-dependent protein kinase catalytic subunit alpha (Homo sapiens, UniProt P17612); assay: Selectivity interaction (Kinase panel (radiometric inhibition assay)) EUB0000651a PRKACA
# [4] = target: Protein kinase C alpha type (Homo sapiens, UniProt P17252); assay: Selectivity interaction (Kinase panel (radiometric inhibition assay)) EUB0000651a PRKCA
# [5] = target: T2, Tyrosine-protein kinase SYK (Homo sapiens, UniProt P43405); assay: Selectivity interaction (Kinase panel (radiometric inhibition assay)) EUB0000651a SYK
# [6] = target: Tyrosine-protein kinase ABL1 (Homo sapiens, UniProt P00519); assay: Selectivity interaction (TR-FRET binding assay) EUB0000644a ABL1
# [7] = target: ALK tyrosine kinase receptor (Homo sapiens, UniProt Q9UM73); assay: Selectivity interaction (TR-FRET binding assay) EUB0000644a ALK
# Aurora kinase B = Aurora kinase B (Homo sapiens, UniProt Q96GD4); assay: Selectivity interaction (TR-FRET binding assay) EUB0000644a AURKB
# [8] = target: Tyrosine-protein kinase BTK (Homo sapiens, UniProt Q06187); assay: Selectivity interaction (TR-FRET binding assay) EUB0000644a BTK
# [9] = target: Cyclin-dependent kinase 11A (Homo sapiens, UniProt Q9UQ88); assay: Selectivity interaction (TR-FRET binding assay) EUB0000644a CDK11A
# [10] = target: Cyclin-dependent kinase 2 (Homo sapiens, UniProt P24941); assay: Selectivity interaction (TR-FRET binding assay) EUB0000644a CDK2
# CDK8/Cyclin C = CDK8/Cyclin C (Homo sapiens, UniProt P49336); assay: Selectivity interaction (TR-FRET binding assay) EUB0000644a CDK8; assay type: protein-complex assay
# CDK7/Cyclin H/MNAT1 = CDK7/Cyclin H/MNAT1 (Homo sapiens, UniProt P50613); assay: Selectivity interaction (TR-FRET binding assay) EUB0000644a […]; assay type: protein-complex assay
# [11] = target: Epidermal growth factor receptor (Homo sapiens, UniProt P00533); assay: Selectivity interaction (TR-FRET binding assay) EUB0000644a EGFR
# [12] = target: G protein-coupled receptor kinase 5 (Homo sapiens, UniProt P34947); assay: Selectivity interaction (TR-FRET binding assay) EUB0000644a GRK5
# [13] = target: Vascular endothelial growth factor receptor 2 (Homo sapiens, UniProt P35968); assay: Selectivity interaction (TR-FRET binding assay) EUB0000644a KDR
# [14] = target: Tyrosine-protein kinase Lck (Homo sapiens, UniProt P06239); assay: Selectivity interaction (TR-FRET binding assay) EUB0000644a LCK
# [15] = target: Mitogen-activated protein kinase 14 (Homo sapiens, UniProt Q16539); assay: Selectivity interaction (TR-FRET binding assay) EUB0000644a MAPK14
# [16] = target: Mitogen-activated protein kinase 8 (Homo sapiens, UniProt P45983); assay: Selectivity interaction (TR-FRET binding assay) EUB0000644a MAPK8
# [17] = target: Hepatocyte growth factor receptor (Homo sapiens, UniProt P08581); assay: Selectivity interaction (TR-FRET binding assay) EUB0000644a MET
# [18] = target: 5'-AMP-activated protein kinase catalytic subunit alpha-1 (Homo sapiens, UniProt Q13131); assay: Selectivity interaction (TR-FRET binding assay) EUB0000644a PRKAA1
# [19] = target: T1, cAMP-dependent protein kinase catalytic subunit alpha; assay: Selectivity interaction (TR-FRET binding assay) EUB0000644a PRKACA
# [20] = target: Ribosomal protein S6 kinase alpha-3 (Homo sapiens, UniProt P51812); assay: Selectivity interaction (TR-FRET binding assay) EUB0000644a RPS6KA3
# [21] = target: T2, Tyrosine-protein kinase SYK; assay: Selectivity interaction (TR-FRET binding assay) EUB0000644a SYK
# Sequence of Tyrosine-protein kinase Lck (P06239 whole entry): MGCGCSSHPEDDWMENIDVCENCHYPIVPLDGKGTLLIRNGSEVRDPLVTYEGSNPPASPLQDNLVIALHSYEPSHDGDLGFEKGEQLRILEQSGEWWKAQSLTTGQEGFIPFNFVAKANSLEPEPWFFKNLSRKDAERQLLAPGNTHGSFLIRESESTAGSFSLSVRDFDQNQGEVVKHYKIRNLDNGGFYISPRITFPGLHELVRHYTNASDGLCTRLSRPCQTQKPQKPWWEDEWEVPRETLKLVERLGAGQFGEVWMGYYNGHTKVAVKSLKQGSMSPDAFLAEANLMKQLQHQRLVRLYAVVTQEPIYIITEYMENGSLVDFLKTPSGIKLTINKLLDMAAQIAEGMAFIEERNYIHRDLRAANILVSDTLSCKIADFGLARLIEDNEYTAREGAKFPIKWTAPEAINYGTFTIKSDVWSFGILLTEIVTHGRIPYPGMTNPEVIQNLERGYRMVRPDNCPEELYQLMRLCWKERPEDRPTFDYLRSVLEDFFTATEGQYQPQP
# Sequence of Calcium/calmodulin-dependent protein kinase type II subunit alpha (Q9UQM7 whole entry): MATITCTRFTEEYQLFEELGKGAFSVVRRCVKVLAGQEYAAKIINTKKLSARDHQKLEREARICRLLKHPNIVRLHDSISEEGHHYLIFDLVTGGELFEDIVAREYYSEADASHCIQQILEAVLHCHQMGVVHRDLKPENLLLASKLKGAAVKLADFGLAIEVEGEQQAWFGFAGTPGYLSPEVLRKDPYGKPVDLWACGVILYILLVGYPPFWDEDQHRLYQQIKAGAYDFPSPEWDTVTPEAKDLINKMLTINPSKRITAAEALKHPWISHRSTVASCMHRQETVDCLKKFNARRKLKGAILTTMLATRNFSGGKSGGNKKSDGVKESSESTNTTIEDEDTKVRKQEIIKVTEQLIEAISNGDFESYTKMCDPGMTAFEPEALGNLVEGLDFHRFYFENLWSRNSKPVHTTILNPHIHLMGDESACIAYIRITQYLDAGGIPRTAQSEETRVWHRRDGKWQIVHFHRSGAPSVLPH
# Sequence of Mitogen-activated protein kinase 14 (Q16539 whole entry): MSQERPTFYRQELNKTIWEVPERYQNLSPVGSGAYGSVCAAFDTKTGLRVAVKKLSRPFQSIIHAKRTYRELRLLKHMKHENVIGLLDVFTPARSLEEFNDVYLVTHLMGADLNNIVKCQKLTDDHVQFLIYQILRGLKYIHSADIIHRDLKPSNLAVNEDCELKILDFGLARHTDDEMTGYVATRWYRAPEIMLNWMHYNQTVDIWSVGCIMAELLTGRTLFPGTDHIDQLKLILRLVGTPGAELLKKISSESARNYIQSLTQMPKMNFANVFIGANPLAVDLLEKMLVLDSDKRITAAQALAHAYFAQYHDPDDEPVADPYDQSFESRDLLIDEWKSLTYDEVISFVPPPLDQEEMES
# Sequence of ALK tyrosine kinase receptor (Q9UM73 whole entry): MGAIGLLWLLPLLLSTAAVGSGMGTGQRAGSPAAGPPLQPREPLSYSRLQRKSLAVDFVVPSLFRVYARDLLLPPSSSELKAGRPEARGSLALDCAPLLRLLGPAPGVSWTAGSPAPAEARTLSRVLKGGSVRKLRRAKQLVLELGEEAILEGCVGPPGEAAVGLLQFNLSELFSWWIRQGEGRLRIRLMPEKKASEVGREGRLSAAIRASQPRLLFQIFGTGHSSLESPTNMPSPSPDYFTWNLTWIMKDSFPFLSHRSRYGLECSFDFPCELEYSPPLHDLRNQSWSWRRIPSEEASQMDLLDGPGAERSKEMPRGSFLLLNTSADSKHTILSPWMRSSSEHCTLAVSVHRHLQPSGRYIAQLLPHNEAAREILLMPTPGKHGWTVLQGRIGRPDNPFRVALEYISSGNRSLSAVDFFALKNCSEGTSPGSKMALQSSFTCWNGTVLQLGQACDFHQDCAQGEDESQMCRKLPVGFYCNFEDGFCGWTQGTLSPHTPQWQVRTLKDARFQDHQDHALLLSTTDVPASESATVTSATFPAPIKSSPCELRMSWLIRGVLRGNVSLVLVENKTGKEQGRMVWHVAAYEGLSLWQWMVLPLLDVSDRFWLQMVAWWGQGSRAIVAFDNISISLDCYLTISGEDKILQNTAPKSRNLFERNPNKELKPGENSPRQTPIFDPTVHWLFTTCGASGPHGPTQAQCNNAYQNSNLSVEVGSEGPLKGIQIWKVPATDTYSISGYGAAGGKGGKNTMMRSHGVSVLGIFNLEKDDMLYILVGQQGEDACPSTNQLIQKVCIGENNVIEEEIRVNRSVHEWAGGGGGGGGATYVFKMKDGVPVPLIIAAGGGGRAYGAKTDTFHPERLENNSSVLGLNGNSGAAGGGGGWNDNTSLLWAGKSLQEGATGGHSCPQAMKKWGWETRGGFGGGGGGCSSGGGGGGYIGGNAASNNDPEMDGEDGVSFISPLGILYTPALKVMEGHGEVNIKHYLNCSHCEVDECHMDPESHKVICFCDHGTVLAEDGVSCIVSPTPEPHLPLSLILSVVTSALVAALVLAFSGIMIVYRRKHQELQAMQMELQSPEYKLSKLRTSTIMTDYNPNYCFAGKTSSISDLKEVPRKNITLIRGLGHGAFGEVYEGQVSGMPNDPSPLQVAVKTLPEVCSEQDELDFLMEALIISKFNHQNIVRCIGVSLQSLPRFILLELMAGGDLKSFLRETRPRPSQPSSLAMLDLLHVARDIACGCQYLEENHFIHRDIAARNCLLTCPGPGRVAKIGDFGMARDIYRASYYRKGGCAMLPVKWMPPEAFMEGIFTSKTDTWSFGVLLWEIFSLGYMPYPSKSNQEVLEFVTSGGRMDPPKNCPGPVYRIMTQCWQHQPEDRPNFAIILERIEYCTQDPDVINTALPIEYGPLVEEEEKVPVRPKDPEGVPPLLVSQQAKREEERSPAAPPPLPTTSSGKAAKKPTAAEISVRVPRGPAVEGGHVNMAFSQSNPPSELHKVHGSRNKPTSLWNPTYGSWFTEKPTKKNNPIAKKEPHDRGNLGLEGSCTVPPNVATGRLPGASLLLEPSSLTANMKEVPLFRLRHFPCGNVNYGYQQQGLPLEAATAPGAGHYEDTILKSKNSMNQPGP
# Sequence of Epidermal growth factor receptor (P00533 whole entry): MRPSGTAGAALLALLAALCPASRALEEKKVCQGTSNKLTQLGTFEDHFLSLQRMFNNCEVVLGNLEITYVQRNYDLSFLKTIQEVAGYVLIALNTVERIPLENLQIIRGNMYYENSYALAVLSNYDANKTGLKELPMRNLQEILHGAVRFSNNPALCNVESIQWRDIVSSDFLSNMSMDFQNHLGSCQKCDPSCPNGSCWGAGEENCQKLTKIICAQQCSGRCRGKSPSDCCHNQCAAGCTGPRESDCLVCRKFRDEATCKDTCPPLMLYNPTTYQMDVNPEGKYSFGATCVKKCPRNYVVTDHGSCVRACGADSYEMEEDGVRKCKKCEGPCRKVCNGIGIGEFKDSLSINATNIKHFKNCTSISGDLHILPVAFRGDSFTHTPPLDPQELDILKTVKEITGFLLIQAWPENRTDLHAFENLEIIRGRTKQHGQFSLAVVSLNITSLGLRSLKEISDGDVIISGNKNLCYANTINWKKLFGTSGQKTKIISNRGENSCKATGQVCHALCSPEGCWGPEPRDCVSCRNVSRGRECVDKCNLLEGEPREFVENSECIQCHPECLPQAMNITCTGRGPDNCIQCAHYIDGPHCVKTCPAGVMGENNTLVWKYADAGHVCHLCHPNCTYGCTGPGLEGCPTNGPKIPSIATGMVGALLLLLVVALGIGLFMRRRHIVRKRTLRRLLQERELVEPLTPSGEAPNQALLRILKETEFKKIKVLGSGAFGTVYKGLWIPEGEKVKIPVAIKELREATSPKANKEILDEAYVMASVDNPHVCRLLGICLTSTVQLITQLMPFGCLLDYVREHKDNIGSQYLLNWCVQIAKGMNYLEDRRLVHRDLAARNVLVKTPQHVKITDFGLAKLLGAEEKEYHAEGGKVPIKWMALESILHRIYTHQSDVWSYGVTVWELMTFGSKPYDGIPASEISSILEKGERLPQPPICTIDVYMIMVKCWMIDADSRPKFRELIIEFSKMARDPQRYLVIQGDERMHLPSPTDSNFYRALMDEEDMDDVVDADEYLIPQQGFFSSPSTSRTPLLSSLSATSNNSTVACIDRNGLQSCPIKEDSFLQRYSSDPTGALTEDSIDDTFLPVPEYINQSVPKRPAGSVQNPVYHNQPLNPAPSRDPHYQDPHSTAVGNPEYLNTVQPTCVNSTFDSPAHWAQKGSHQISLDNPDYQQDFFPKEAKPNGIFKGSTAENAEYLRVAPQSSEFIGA
structure (smiles),measurement,setting,value
COc1cc(C)c(Sc2cnc(NC(=O)c3ccc(CNC(C)C(C)(C)C)cc3)s2)cc1C(=O)N1CCN(C(C)=O)CC1 (centres undefined),IC50,[1],33.5 µM
same,IC50,[2],2400 nM
same,IC50,[3],> 50 µM
same,IC50,[4],24 µM
same,IC50,[5],> 50 µM
CC[C@@H]1CN(C(=O)NCC(F)(F)F)C[C@@H]1c1cnc2cnc3[nH]ccc3n12 [UPADACITINIB],IC50,[6],> 10 µM
same,IC50,[7],5.5 µM
same,IC50,Aurora kinase B,5.5 µM
same,IC50,[8],> 10 µM
same,IC50,[9],> 10 µM
same,IC50,[10],> 10 µM
same,IC50,CDK8/Cyclin C,> 10 µM
same,IC50,CDK7/Cyclin H/MNAT1,> 10 µM
same,IC50,[11],> 10 µM
same,IC50,[12],7.9 µM
same,IC50,[13],1500 nM
same,IC50,[14],10 µM
same,IC50,[15],> 10 µM
same,IC50,[16],> 10 µM
same,IC50,[17],> 10 µM
same,IC50,[18],4.5 µM
same,IC50,[19],> 10 µM
same,IC50,[20],9.6 µM
same,IC50,[21],> 10 µM
